According to ChEMBL document CHEMBL4825702, “5-Aminonaphthalene derivatives as selective nonnucleoside nuclear receptor binding SET domain-protein 2 (NSD2) inhibitors for the treatment of multiple myeloma” (Eur J Med Chem, 2021):

Molecular target: T1, Histone-lysine N-methyltransferase NSD2 (Homo sapiens, UniProt O96028)
T1 sequence (O96028 whole entry): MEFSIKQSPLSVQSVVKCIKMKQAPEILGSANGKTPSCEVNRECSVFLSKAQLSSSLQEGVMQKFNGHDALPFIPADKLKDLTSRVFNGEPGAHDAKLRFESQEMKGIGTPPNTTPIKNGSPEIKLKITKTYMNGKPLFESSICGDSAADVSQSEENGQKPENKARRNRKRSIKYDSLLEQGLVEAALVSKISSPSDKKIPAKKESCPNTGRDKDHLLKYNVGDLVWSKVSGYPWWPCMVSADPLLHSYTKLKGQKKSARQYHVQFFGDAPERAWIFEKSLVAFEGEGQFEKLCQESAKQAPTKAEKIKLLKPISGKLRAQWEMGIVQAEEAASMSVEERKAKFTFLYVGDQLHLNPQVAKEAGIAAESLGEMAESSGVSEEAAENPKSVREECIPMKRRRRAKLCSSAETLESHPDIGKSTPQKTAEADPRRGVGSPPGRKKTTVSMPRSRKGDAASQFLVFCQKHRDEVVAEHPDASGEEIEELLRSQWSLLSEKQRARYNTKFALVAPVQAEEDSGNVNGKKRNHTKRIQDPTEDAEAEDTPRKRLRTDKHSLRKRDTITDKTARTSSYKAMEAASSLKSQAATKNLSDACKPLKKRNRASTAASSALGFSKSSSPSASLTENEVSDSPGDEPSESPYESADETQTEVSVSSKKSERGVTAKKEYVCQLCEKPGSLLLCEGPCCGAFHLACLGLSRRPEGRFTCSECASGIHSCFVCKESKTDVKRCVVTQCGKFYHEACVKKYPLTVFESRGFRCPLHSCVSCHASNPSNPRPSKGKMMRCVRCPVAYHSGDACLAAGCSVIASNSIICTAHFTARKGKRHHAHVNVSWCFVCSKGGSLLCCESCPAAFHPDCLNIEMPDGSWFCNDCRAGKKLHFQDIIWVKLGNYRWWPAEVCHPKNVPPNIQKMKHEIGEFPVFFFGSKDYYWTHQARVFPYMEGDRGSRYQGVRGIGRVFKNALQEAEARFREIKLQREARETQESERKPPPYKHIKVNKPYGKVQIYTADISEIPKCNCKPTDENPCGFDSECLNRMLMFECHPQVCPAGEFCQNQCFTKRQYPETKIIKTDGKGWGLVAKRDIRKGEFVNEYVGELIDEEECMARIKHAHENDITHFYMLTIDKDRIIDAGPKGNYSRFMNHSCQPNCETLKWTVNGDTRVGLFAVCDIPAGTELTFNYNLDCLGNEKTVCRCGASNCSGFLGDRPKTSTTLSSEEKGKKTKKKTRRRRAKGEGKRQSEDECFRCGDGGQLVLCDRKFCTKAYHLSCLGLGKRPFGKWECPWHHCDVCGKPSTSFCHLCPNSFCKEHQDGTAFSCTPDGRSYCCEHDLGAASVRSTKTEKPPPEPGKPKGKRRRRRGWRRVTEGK
Experiment: Inhibition of recombinant human N-terminal GST-tagged NSD2 CD (941 to 1240 residues) expressed in Escherichia coli using SAM as substrate in presence of nucleosomes by AlphaLISA method

Row | SMILES | IC50 [µM]
1 | Nc1cccc2c(S(=O)(=O)NCCc3ccccc3)cccc12 | 15.4
2 | CCN1CCC(Nc2cccc3c(S(=O)(=O)NCc4ccccc4)cccc23)CC1 | 3.2
3 | Nc1cccc2c(S(=O)(=O)NCc3ccc(F)cc3)cccc12 | 14.1
4 | Nc1cccc2c(S(=O)(=O)NCC3CCCNC3)cccc12 (centres undefined) | > 20
5 | CN(C)c1cccc2c(S(=O)(=O)NCc3ccccc3)cccc12 | > 20
6 | Nc1cccc2c(S(=O)(=O)NCc3ccncc3)cccc12 | 26
7 | COc1ccc(CNS(=O)(=O)c2cccc3c(N)cccc23)cc1 | 13.5
8 | Nc1cccc2c(S(=O)(=O)NCC3CCCCC3)cccc12 | > 20
9 | O=C(NCc1ccccc1)c1cccc2ncccc12 | 19.6
10 | O=S(=O)(NCc1ccccc1)c1cccc2ccccc12 | > 20
11 | O=C(c1ccccc1)N1CCC(Nc2cccc3c(S(=O)(=O)NCc4ccccc4)cccc23)CC1 | 18
12 | Nc1cccc2c(S(=O)(=O)NCc3cccs3)cccc12 | 22.7
13 | CN1CCC(CNS(=O)(=O)c2cccc3c(N)cccc23)CC1 | 3.4
14 | O=S(=O)(NCc1ccccc1)c1cccc2c(NC3CCNCC3)cccc12 | 10.2
15 | Nc1cccc2c(S(=O)(=O)NCc3ccc(C(=O)O)cc3)cccc12 | > 20

The remaining lines, values ahead:

Row | IC50 [µM] | SMILES
16 | > 20 | CN(Cc1ccccc1)S(=O)(=O)c1cccc2c(N)cccc12
17 | > 20 | Nc1cccc2cc(S(=O)(=O)NCc3ccccc3)ccc12
18 | > 20 | Nc1ccc2cc(S(=O)(=O)NCc3ccccc3)ccc2c1
19 | 18.1 | N#Cc1ccc(CNS(=O)(=O)c2cccc3c(N)cccc23)cc1
20 | 18.4 | CC(C)(C)NS(=O)(=O)c1cccc2c(N)cccc12
21 | 6 | CN1CCC(Nc2cccc3c(S(=O)(=O)NCc4ccccc4)cccc23)CC1
22 | 19.4 | Nc1cccc2c(C(=O)NCc3ccccc3)cccc12
23 | > 20 | O=C(OCc1ccccc1)N1CCC(Nc2cccc3c(S(=O)(=O)NCc4ccccc4)cccc23)CC1
24 | 10.7 | O=S(=O)(NCc1ccccc1)c1cccc2c(NCC3CC3)cccc12
25 | > 20 | Nc1cccc2c(S(=O)(=O)Nc3ccccc3)cccc12
26 | 10.4 | Nc1cccc2c(S(=O)(=O)NCc3ccc(C(F)(F)F)cc3)cccc12
27 | 19.9 | Nc1cccc2c(S(=O)(=O)NC3CC3c3ccccc3)cccc12 (trans isomer)
28 | 7.5 | CC(=O)N1CCC(Nc2cccc3c(S(=O)(=O)NCc4ccccc4)cccc23)CC1
29 | > 20 | Nc1ccc(S(=O)(=O)NCc2ccccc2)c2ccccc12
30 | > 20 | O=C(NCc1ccccc1)c1cccc2[nH]ccc12
31 | > 20 | N#Cc1cccc(CNS(=O)(=O)c2cccc3c(N)cccc23)c1
32 | > 20 | Nc1ccc2c(S(=O)(=O)NCc3ccccc3)cccc2c1
33 | 12.6 | O=S(=O)(NCc1ccccc1)c1cccc2c(NC3CCCCC3)cccc12
34 | 11.8 | CS(=O)(=O)N1CCC(Nc2cccc3c(S(=O)(=O)NCc4ccccc4)cccc23)CC1
35 | > 20 | Nc1cccc2c(S(=O)(=O)N3CCC(Cc4ccccc4)CC3)cccc12
36 | > 20 | CC(=O)Nc1cccc2c(S(=O)(=O)NCc3ccccc3)cccc12

Molecular target: T1, Histone-lysine N-methyltransferase NSD2
Experiment: Binding affinity to MMSET (973 to 1203 residues) (unknown origin) expressed in Escherichia coli BL21 DE3 by ITC analysis

Row | Kd [µM] | SMILES
37 | 1.6 | CCC(C)NC(CC[C@H](N)C(=O)O)C[C@H]1O[C@@H](n2cnc3c(N)ncnc32)[C@H](O)[C@@H]1O (some centres undefined)

Molecular target: T1, Histone-lysine N-methyltransferase NSD2
Experiment: Inhibition of NSD2 (953 to 1240 residues) (unknown origin) using SAM as substrate in presence of nucleosome by AlphaScreen assay

Row | IC50 [µM] | SMILES
38 | 3.3 | CCC(C)NC(CC[C@H](N)C(=O)O)C[C@H]1O[C@@H](n2cnc3c(N)ncnc32)[C@H](O)[C@@H]1O (some centres undefined)

Molecular target: T1, Histone-lysine N-methyltransferase NSD2
Experiment: Inhibition of NSD2 (unknown origin)

Row | IC50 [µM] | SMILES
39 | 26 | Nc1ncnc2c1ncn2[C@@H]1O[C@H](CC(N)CC[C@H](N)C(=O)O)[C@@H](O)[C@H]1O (some centres undefined)
40 | 11.2 | O=C1O[C@@H](C(=O)N2CCN(Cc3nc4sc5c(c4c(=O)[nH]3)CCCC5)CC2)Cc2ccccc21
41 | 3 | NNc1nc2ccccc2nc1S

Molecular target: Histone-lysine N-methyltransferase, H3 lysine-36 specific (Homo sapiens, UniProt Q96L73)
Experiment: Inhibition of human NSD1-SET using histone H3.1 as substrate incubated for 1 hr by Western blot analysis

Sequence of Histone-lysine N-methyltransferase, H3 lysine-36 specific (Q96L73 whole entry): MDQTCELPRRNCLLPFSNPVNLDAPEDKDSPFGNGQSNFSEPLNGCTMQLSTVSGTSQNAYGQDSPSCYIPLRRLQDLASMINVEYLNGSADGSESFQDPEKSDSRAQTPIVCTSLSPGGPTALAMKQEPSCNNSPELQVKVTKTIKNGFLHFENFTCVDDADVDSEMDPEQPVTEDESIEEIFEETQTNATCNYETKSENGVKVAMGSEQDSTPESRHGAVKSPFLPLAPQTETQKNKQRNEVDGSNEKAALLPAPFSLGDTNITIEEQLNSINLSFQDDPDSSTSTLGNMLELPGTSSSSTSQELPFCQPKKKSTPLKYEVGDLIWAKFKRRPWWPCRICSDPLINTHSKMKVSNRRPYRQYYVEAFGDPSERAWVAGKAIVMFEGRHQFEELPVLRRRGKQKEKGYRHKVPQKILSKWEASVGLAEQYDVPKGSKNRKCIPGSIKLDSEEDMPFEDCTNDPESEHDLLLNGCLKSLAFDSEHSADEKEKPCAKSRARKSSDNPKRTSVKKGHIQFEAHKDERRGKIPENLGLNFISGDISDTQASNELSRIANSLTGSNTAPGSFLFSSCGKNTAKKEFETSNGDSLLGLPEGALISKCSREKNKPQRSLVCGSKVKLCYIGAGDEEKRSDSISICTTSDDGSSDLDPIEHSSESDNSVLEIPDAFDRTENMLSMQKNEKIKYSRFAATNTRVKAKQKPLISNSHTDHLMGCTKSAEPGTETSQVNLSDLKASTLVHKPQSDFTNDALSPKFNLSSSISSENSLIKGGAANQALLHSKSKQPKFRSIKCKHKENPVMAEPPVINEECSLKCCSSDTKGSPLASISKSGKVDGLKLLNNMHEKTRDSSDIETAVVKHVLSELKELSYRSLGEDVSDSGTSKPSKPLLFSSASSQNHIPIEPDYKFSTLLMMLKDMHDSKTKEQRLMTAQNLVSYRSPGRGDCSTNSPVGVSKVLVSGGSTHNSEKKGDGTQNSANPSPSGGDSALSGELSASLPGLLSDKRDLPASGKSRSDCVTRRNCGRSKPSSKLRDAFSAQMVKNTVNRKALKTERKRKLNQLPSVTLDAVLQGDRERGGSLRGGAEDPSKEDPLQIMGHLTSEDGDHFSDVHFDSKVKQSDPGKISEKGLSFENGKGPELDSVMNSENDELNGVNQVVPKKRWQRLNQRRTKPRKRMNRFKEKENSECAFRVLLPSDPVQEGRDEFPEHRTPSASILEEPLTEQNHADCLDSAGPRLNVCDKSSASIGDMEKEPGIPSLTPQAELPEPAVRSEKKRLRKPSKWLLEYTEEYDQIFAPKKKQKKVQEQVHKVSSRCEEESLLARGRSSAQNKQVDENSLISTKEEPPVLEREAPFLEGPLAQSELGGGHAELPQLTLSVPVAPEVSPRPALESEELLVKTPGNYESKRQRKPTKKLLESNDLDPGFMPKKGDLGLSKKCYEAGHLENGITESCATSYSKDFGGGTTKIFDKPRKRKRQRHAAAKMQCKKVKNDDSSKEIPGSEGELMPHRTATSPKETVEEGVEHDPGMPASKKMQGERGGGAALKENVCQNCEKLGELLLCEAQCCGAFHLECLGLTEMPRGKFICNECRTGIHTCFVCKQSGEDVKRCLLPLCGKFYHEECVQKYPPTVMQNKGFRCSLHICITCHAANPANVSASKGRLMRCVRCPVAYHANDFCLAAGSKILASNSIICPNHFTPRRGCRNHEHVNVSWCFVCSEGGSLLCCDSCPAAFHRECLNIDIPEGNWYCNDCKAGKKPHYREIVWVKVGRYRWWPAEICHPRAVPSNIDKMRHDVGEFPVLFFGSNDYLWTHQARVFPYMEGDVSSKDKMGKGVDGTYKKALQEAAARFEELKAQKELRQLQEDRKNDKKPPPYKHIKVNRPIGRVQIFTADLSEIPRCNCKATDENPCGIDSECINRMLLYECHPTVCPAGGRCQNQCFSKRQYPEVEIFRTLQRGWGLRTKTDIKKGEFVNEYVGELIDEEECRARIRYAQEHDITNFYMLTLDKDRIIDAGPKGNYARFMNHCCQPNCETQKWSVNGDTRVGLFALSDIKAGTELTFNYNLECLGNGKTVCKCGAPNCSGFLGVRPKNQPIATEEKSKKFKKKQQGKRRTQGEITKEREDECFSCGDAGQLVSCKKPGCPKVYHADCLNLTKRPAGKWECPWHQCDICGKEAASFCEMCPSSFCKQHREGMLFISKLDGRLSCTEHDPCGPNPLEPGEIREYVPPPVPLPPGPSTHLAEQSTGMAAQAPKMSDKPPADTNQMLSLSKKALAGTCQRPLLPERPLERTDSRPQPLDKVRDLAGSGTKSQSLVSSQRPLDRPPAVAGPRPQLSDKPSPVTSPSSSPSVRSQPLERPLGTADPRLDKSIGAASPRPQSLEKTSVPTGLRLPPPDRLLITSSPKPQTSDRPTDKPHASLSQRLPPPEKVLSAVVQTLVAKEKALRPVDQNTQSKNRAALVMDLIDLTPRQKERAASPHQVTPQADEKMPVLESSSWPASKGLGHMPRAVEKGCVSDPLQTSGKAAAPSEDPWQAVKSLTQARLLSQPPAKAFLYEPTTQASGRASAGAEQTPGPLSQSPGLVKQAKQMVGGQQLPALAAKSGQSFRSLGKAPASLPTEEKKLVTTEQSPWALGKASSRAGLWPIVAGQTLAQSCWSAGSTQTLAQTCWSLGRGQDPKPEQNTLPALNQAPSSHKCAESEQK

Row | IC50 [µM] | SMILES
42 | 112 | COc1cc2nc(N3CCN(C)CC3)nc(NC3CCN(Cc4ccccc4)CC3)c2cc1OC

Molecular target: T1, Histone-lysine N-methyltransferase NSD2
Experiment: Inhibition of human NSD2-SET using histone H3.1 as substrate incubated for 1 hr by Western blot analysis

Row | IC50 [µM] | SMILES
43 | 41 | COc1cc2nc(N3CCN(C)CC3)nc(NC3CCN(Cc4ccccc4)CC3)c2cc1OC

Molecular target: Histone-lysine N-methyltransferase NSD3 (Homo sapiens, UniProt Q9BZ95)
Experiment: Inhibition of human NSD3-SET using histone H3.1 as substrate incubated for 1 hr by Western blot analysis

Sequence of Histone-lysine N-methyltransferase NSD3 (Q9BZ95 whole entry): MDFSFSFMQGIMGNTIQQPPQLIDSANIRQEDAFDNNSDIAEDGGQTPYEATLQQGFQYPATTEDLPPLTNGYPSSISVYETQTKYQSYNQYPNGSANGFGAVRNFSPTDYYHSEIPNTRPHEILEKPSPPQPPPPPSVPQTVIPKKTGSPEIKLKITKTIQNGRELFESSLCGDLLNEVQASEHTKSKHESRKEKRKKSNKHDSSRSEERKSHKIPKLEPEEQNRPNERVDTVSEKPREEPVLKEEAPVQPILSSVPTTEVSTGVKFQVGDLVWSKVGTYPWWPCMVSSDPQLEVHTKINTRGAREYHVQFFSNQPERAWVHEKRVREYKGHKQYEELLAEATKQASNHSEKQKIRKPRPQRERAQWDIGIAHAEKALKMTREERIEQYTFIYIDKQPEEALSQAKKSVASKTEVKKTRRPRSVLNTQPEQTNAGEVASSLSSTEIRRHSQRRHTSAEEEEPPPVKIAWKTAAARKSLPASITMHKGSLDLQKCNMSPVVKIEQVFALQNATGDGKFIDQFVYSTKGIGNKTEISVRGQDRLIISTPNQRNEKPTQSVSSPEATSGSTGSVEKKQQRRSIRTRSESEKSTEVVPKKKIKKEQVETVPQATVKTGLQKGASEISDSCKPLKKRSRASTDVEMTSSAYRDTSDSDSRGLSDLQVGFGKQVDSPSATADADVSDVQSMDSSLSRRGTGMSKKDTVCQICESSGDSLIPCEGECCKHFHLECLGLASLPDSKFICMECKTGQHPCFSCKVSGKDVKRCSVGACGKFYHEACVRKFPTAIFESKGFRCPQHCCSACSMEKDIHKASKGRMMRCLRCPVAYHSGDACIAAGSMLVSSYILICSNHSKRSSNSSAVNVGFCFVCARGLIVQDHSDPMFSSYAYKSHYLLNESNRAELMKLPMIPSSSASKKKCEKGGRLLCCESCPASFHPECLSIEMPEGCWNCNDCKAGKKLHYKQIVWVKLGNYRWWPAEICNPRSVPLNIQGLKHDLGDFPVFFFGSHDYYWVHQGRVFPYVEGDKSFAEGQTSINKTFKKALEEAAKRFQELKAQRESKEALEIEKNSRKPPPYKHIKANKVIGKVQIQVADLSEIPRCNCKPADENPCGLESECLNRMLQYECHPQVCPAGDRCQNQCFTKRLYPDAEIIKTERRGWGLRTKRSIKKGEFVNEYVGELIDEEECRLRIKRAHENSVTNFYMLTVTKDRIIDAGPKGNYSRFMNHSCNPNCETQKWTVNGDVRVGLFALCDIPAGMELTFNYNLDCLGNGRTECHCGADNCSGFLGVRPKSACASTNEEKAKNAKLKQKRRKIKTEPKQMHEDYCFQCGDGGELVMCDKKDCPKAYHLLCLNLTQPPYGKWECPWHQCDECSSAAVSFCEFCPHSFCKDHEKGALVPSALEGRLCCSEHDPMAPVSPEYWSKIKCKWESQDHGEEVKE

Row | IC50 [µM] | SMILES
44 | 95 | COc1cc2nc(N3CCN(C)CC3)nc(NC3CCN(Cc4ccccc4)CC3)c2cc1OC
